Patent US20070107083A1, “Method for regulating plant growth” (priority 2004, published 2007)
“Also recorded” adds a separate entry of the source.

Assays:
[1] = tested on: Saccharomyces cerevisiae strain YZGA452; assay type: cell-based
[2] = tested on: Wild-type Saccharomyces cerevisiae; assay type: cell-based
[3] = tested on: DOGT1 promoter (PDOGT1-GUS); assay type: in vivo, Arabidopsis thaliana; settings: seedlings; DON 5 ppm for 4 h, ACC 2 μM for 1 h, SA 200 μM for 12 h, JA 50 μM for 1 h
DOGT1 (UGT73C5) mRNA = test: Semiquantitative RT-PCR of DOGT1 mRNA after compound treatment; assay type: in vivo, Arabidopsis thaliana; settings: for DOGT1 mRNA expression (RT-PCR): seedlings in liquid MS, 5 ppm DON, 200 μM SA, 2 μM ACC or 50 μM JA
UGT73C4 mRNA = test: Semiquantitative RT-PCR of 73C4 mRNA after compound treatment; assay type: in vivo, Arabidopsis thaliana; settings: seedlings in liquid MS; 5 ppm DON, 200 μM SA
UGT73C6 mRNA = test: Semiquantitative RT-PCR of 73C6 mRNA after compound treatment; assay type: in vivo, Arabidopsis thaliana; settings: seedlings in liquid MS, 5 ppm DON, 200 μM SA, 2 μM ACC or 50 μM JA
[4] = tested on: A. thaliana high DOGT1-expression line (1319/2); test: Phenotype of DOGT1-overexpressing seedlings on brassinosteroid media; assay type: in vivo, Arabidopsis thaliana; settings: 10 day old seedlings
Procedure: (§1) 10 day old seedlings were transferred to MS media resp. MS media containing 1.0 μM BL and incubated for another 10 days before phenotypic analysis. […] Right: Seedlings of lines expressing DOGT1 grown on MS media show a BR-deficient phenotype (short hypocotyls and smaller leaves with shorter petioles compared to wild-type).
(§2) Plant material and growth conditions. A. thaliana experiments were conducted with the wild-type ecotype Columbia-0 (Col-0). For propagation seeds were sterilized, plated on standard MS growth medium (Murashige et al., Plant Physiology 15 (1962), 473-497) supplemented with 1.0% sucrose and 1.0% phytagar (Life Technologies) and subjected to a 2 day dark treatment at 4° C. to synchronize germination. The seedlings were grown for 2 weeks in a controlled environment of 16 h/8 h light-dark cycle (140 μmol m^−2 sec^−1 white light) at 22° C. before they were transferred to soil and grown at 20° C. and 55% humidity under continuous white light.
(§3) The effect of externally applied epi-brassinolide (epi-BL) was determined by transferring 10 day old seedlings of wild-type and a high DOGT1-expression line (1319/2) to media containing different concentrations of the brassinosteroid. The plants were incubated for 10 days before the phenotype was analysed.

[5] = tested on: A. thaliana wild-type Col-0; test: Phenotype of wild-type seedlings on brassinosteroid media; assay type: in vivo, Arabidopsis thaliana; settings: 10 day old seedlings
Procedure: as §1, §2, §3

[6] = tested on: dwarf mutants with defects in BR biosynthesis; settings: application of brassinolide; cited from earlier work
[7] = MS media containing 1.0 μM BL, another 10 days
[8] = media with different concentrations, 10 days

| Structure (SMILES) | PDOGT1-GUS expression [3] | DOGT1 mRNA expression (RT-PCR) (DOGT1 (UGT73C5) mRNA) | 73C4 mRNA expression (RT-PCR) (UGT73C4 mRNA) | 73C6 mRNA expression (RT-PCR) (UGT73C6 mRNA) | also measured |
| --- | --- | --- | --- | --- | --- |
| CC1=C[C@H]2O[C@@H]3[C@H](O)C[C@](C)([C@@]2(CO)[C@H](O)C1=O)[C@]31CO1 [DON, deoxynivalenol] | induce PDOGT1-GUS expression | DON inducible expression | DON inducible | stronger induction of expression | growth of yeast transformed with the empty library plasmid ([1]; 180 ppm DON in media): completely inhibit growth; sensitivity of strain YZGA452 ([1]; strain deficient in four ABC transporters): hypersensitive; resistance of wild-type yeast [2]: highly resistant; time of peak of transcript amounts (DOGT1 (UGT73C5) mRNA; incubation with 5 ppm DON, stated for DOGT1, 73C4 and 73C6 transcripts): 4 h |
| CC/C=C\C[C@H]1C(=O)CC[C@@H]1CC(=O)O [JA, jasmonic acid] | No induction of expression | responded weekly with elevated mRNA levels |  | responded weekly with elevated mRNA levels | DOGT1 mRNA expression (RT-PCR) (DOGT1 (UGT73C5) mRNA; listed as Jasmonic acid): weak induction of expression; 73C6 mRNA expression (RT-PCR) (UGT73C6 mRNA; listed as Jasmonic acid): weak induction of expression |
| CC(C)[C@H](C)[C@@H](O)[C@H](O)[C@@H](C)[C@H]1CC[C@H]2[C@@H]3COC(=O)[C@H]4C[C@H](O)[C@H](O)C[C@]4(C)[C@H]3CC[C@]12C [BL, Brassinolide] |  |  |  |  | phenotype of DOGT1-expressing seedlings [4, 7]: restores wild-type growth; phenotype of wild-type seedlings [5, 7]: typical growth response; growth of dwarf mutants with defects in BR biosynthesis [6]: restores normal growth |
| O=C(O)c1ccccc1O [SA, salicylic acid] | No induction of expression | rather weakly; also recorded: responded weekly with elevated mRNA levels | rather weakly | rather weakly; also recorded: responded weekly with elevated mRNA levels |  |
| CC(C)[C@@H](C)[C@@H](O)[C@H](O)[C@@H](C)[C@H]1CC[C@H]2[C@@H]3COC(=O)[C@H]4C[C@H](O)[C@H](O)C[C@]4(C)[C@H]3CC[C@]12C [epi-BL, epi-brassinolide] |  |  |  |  | phenotype of high DOGT1-expression line 1319/2 [4, 8]: restored to wild-type phenotype; phenotype of Col-0 [5, 8]: typical growth response |
